From patent US12568969B2, “Pyridine compounds for controlling invertebrate pests” (FMC Corporation, priority 2020, dated 2026)

What was measured:
Type in all cases: in vivo
[1] = tested on: corn planthopper (Peregrinus maidis (Ashmead)); assay: whole plant or invertebrate; conditions: Peregrinus maidis, 144 h, 6 days; for mortality at 50 ppm: sprayed at 50 ppm; for mortality at 250 ppm: sprayed at 250 ppm; for mortality at 10 ppm: sprayed at 10 ppm
Experimental: (§1) Test compounds were formulated using a solution containing 10% acetone, […] and 300 ppm Activator 909 non-ionic surfactant (Loveland Products, Loveland, Colorado, USA). The formulated compounds were applied in 1 mL of liquid through an atomizer nozzle positioned 1.27 cm (0.5 inches) above the top of each test unit. Test compounds were sprayed at the rates indicated, and each test was replicated three times.
For evaluating control of corn planthopper (Peregrinus maidis (Ashmead)) through contact and/or systemic means, the test unit consisted of a small open container with a 3-4-day-old corn (maize) plant inside. White sand was added to the top of the soil prior to application of the test compound.
Test compounds were formulated and sprayed at 250 and/or 50 ppm and/or 10 ppm. After spraying of the formulated test compound, the test units were allowed to dry for 1 h before they were post-infested with ˜15-20 nymphs (18-to-21-day-old). A black, screened cap was placed on the top of each test unit, and the test units were held for 6 days in a growth chamber at 22-24° C. and 50-70% relative humidity. Each test unit was then visually assessed for insect mortality.

[2] = tested on: green peach aphid (Myzus persicae (Sulzer)); assay: Test D: control of green peach aphid on radish plant, spray; conditions: Myzus persicae, 144 h, 6 days; for mortality at 250 ppm: sprayed at 250 ppm; for mortality at 50 ppm: sprayed at 50 ppm
Experimental: as §1
For evaluating control of green peach aphid (Myzus persicae (Sulzer)) through contact and/or systemic means, the test unit consisted of a small open container with a 12-15-day-old radish plant inside. This was pre-infested by placing on a leaf of the test plant 30-40 aphids on a piece of leaf excised from a culture plant (cut-leaf method). The aphids moved onto the test plant as the leaf piece desiccated. After pre-infestation, the soil of the test unit was covered with a layer of sand.
[…] After spraying of the formulated test compound, each test unit was allowed to dry for 1 hour and then a black, screened cap was placed on top. The test units were held for 6 days in a growth chamber at 19-21° C. and 50-70% relative humidity. Each test unit was then visually assessed for insect mortality.

[3] = tested on: cotton melon aphid (Aphis gossypii (Glover)); assay: whole plant or invertebrate; conditions: Aphis gossypii, 144 h, 6 days; for mortality at 50 ppm: sprayed at 50 ppm; for mortality at 250 ppm: sprayed at 250 ppm
Experimental: as §1
[…] This was pre-infested with 30-40 insects on a piece of leaf according to the cut-leaf method, and the soil of the test unit was covered with a layer of sand.
Test compounds were formulated and sprayed at 250 and/or 50 ppm. After spraying, the test units were maintained in a growth chamber for 6 days at 19° C. and 70% relative humidity. Each test unit was then visually assessed for insect mortality.

[4] = tested on: sweetpotato whitefly (Bemisia tabaci (Gennadius)); assay: Test F: control of sweetpotato whitefly on cotton plant, spray; conditions: 312 h, 13 days; for mortality at 50 ppm: sprayed at 50 ppm; for mortality at 250 ppm: sprayed at 250 ppm
Experimental: as §1
For evaluating control of the sweetpotato whitefly (Bemisia tabaci (Gennadius)) through contact and/or systemic means, the test unit consisted of a small open container with a 12-14-day-old cotton plant inside. Prior to the spray application, both cotyledons were removed from the plant, leaving one true leaf for the assay. Adult whiteflies were allowed to lay eggs on the plant and then were removed from the test unit. Cotton plants infested with at least 15 eggs were submitted to the test for spraying.
Test compounds were formulated and sprayed at 250 and/or 50 ppm. After spraying, the test units were allowed to dry for 1 hour. The cylinders were then removed, and the units were taken to a growth chamber and held for 13 days at 28° C. and 50-70% relative humidity. Each test unit was then visually assessed for insect mortality.

[5] = tested on: diamondback moth (Plutella xylostella (L.)); assay: Test A: control of diamondback moth on mustard plant, spray; conditions: sprayed at 250 ppm; assessed after 6 days
Experimental: as §1
For evaluating control of diamondback moth (Plutella xylostella (L.)) the test unit consisted of a small open container with a 12-14-day-old mustard plant inside. This was pre-infested with ˜50 neonate larvae that were dispensed into the test unit via corn cob grits using an inoculator. The larvae moved onto the test plant after being dispensed into the test unit.
Test compounds were formulated and sprayed at 250 ppm. After spraying of the formulated test compound, each test unit was allowed to dry for 1 hour and then a black, screened cap was placed on top. The test units were held for 6 days in a growth chamber at 25° C. and 70% relative humidity. Plant feeding damage was then visually assessed based on foliage consumed, and larvae were assessed for mortality.

Q: `FC(c1ccc(OC(F)(F)F)cc1)c1c(Cl)cncc1-n1cccn1` (stereo not drawn) [Compound 88] was tested. Which mortality at 50 ppm [1] did it give?
A: Its mortality at 50 ppm is at least 80%.

Q: What about the mortality at 250 ppm [1] of the same molecule?
A: The mortality at 250 ppm was at least 80%.

Q: What about the mortality at 250 ppm [2] of the same molecule?
A: The mortality at 250 ppm was at least 80%.

Q: What about the mortality at 50 ppm [3] of the same molecule?
A: The mortality at 50 ppm was at least 80%.

Q: And the mortality at 250 ppm [3]?
A: The mortality at 250 ppm was at least 80%.

Q: What about the mortality at 50 ppm [4] of the same molecule?
A: Its mortality at 50 ppm is at least 70%.

Q: And the mortality at 250 ppm [4]?
A: Its mortality at 250 ppm is at least 70%.

Q: What does the source list for `[O-][S+](c1ccc(C(F)c2c(Cl)cncc2-n2nccn2)cc1)C(F)(F)F` (stereo not drawn) [Compound 90]?
A: mortality at 50 ppm [1]: ≥ 80%; mortality at 250 ppm [1]: ≥ 80%; mortality at 50 ppm [2]: ≥ 80%; mortality at 250 ppm [2]: ≥ 80%; mortality at 50 ppm [3]: ≥ 80%; mortality at 250 ppm [3]: ≥ 80%; mortality at 50 ppm [4]: ≥ 70%; mortality at 250 ppm [4]: ≥ 70%

Q: What does the source list for `O=S(=O)(c1ccc(C(F)c2c(Cl)cncc2-n2nccn2)cc1)C(F)(F)F` (stereo not drawn) [Compound 91]?
A: mortality at 50 ppm [2]: ≥ 80%; mortality at 250 ppm [2]: ≥ 80%; mortality at 50 ppm [3]: ≥ 80%; mortality at 250 ppm [3]: ≥ 80%; mortality at 50 ppm [4]: ≥ 70%; mortality at 250 ppm [4]: ≥ 70%

Q: With `FC(c1ccc(SC(F)(F)F)cc1)c1c(I)cncc1-n1nccn1` (stereo not drawn) [Compound 95] as the molecule, how does the mortality at 10 ppm [1] read?
A: Its mortality at 10 ppm is at least 80%.

Q: What about the mortality at 50 ppm [1] of the same molecule?
A: The mortality at 50 ppm was at least 80%.

Q: What about the mortality at 250 ppm [1] of the same molecule?
A: The mortality at 250 ppm was at least 80%.

Q: What about the mortality at 50 ppm [2] of the same molecule?
A: Its mortality at 50 ppm is at least 80%.

Q: What about the mortality at 250 ppm [2] of the same molecule?
A: The mortality at 250 ppm was at least 80%.

Q: What about the mortality at 50 ppm [3] of the same molecule?
A: The mortality at 50 ppm was at least 80%.

Q: And the mortality at 250 ppm [3]?
A: Its mortality at 250 ppm is at least 80%.

Q: And the mortality at 50 ppm [4]?
A: The mortality at 50 ppm was at least 70%.

Q: And the mortality at 250 ppm [4]?
A: Its mortality at 250 ppm is at least 70%.

Q: Which “control efficacy (40% or less feeding damage and/or 100% mortality)” value [5] does the source give for `Fc1cncc(-c2cnco2)c1C(F)c1ccc(SC(F)(F)F)cc1` (stereo not drawn) [Compound 100] here?
A: The value was “very good to excellent levels of control efficacy”.

Q: What about the mortality at 50 ppm [3] of the same molecule?
A: Its mortality at 50 ppm is at least 80%.

Q: And the mortality at 250 ppm [3]?
A: Its mortality at 250 ppm is at least 80%.

Q: `CC(C)(C)c1ccc(C(F)c2c(Br)cncc2-n2nccn2)cc1` (stereo not drawn) [Compound 108] was tested. Which mortality at 50 ppm [1] did it give?
A: The mortality at 50 ppm was at least 80%.

Q: And the mortality at 250 ppm [1]?
A: The mortality at 250 ppm was at least 80%.

Q: And the mortality at 50 ppm [4]?
A: Its mortality at 50 ppm is at least 70%.

Q: And the mortality at 250 ppm [4]?
A: The mortality at 250 ppm was at least 70%.

Q: What does the source list for `FC(c1ccc(Br)cc1)c1c(Cl)cncc1-n1nccn1` (stereo not drawn) [Compound 109]?
A: mortality at 10 ppm [1]: ≥ 80%; mortality at 50 ppm [1]: ≥ 80%; mortality at 250 ppm [1]: ≥ 80%; mortality at 50 ppm [3]: ≥ 80%; mortality at 250 ppm [3]: ≥ 80%; mortality at 50 ppm [4]: ≥ 70%; mortality at 250 ppm [4]: ≥ 70%

Q: How did the mortality at 10 ppm [1] turn out when `COC(c1ccc(SC(F)(F)F)cc1)c1c(Cl)cncc1-n1nccn1` (stereo not drawn) [Compound 127] was run?
A: The mortality at 10 ppm was at least 80%.

Q: And the mortality at 50 ppm [1]?
A: Its mortality at 50 ppm is at least 80%.

Q: What about the mortality at 250 ppm [1] of the same molecule?
A: Its mortality at 250 ppm is at least 80%.

Q: What about the mortality at 50 ppm [2] of the same molecule?
A: The mortality at 50 ppm was at least 80%.

Q: And the mortality at 250 ppm [2]?
A: Its mortality at 250 ppm is at least 80%.

Q: And the mortality at 50 ppm [3]?
A: Its mortality at 50 ppm is at least 80%.

Q: What about the mortality at 250 ppm [3] of the same molecule?
A: Its mortality at 250 ppm is at least 80%.

Q: What about the mortality at 50 ppm [4] of the same molecule?
A: Its mortality at 50 ppm is at least 70%.

Q: And the mortality at 250 ppm [4]?
A: Its mortality at 250 ppm is at least 70%.

Q: For `FC(c1ccc2c(c1)OC(F)(F)O2)c1c(Br)cncc1-n1nccn1` (stereo not drawn) [Compound 147], which “control efficacy (40% or less feeding damage and/or 100% mortality)” value [5] is on record?
A: The value was “very good to excellent levels of control efficacy”.

Q: With `COC(c1ccc2c(c1)OC(F)(F)O2)c1c(F)cncc1-n1cccn1` (stereo not drawn) [Compound 155] as the molecule, how does the “control efficacy (40% or less feeding damage and/or 100% mortality)” value [5] read?
A: The value was “very good to excellent levels of control efficacy”.

Q: Which “control efficacy (40% or less feeding damage and/or 100% mortality)” value [5] does the source give for `Fc1cncc(-n2cccn2)c1C(F)c1cnc(C(F)(F)F)nc1` (stereo not drawn) [Compound 162] here?
A: Its value is “very good to excellent levels of control efficacy”.

Q: `Fc1cncc(-n2nccn2)c1C(F)c1ccc(Br)nc1` (stereo not drawn) [Compound 166] was tested. Which “control efficacy (40% or less feeding damage and/or 100% mortality)” value [5] did it give?
A: Its value is “very good to excellent levels of control efficacy”.

Q: How did the “control efficacy (40% or less feeding damage and/or 100% mortality)” value [5] turn out when `Fc1cncc(-n2cccn2)c1C(F)c1ccc(C(F)(F)F)cn1` (stereo not drawn) [Compound 171] was run?
A: The value was “very good to excellent levels of control efficacy”.

Q: With `Fc1cncc(-n2nccn2)c1C(F)c1ccc(C(F)(F)F)cn1` (stereo not drawn) [Compound 172] as the molecule, how does the “control efficacy (40% or less feeding damage and/or 100% mortality)” value [5] read?
A: Its value is “very good to excellent levels of control efficacy”.

Q: `COC(c1ccc(OC(F)(F)F)cc1)c1ncncc1-n1nccn1` (stereo not drawn) [Compound 175] was tested. Which “control efficacy (40% or less feeding damage and/or 100% mortality)” value [5] did it give?
A: Its value is “very good to excellent levels of control efficacy”.
